For this assay, the target named is T1, GIPR (Homo sapiens, UniProt P48546).
T1 construct: host or cells: CHO-K1
T1 sequence (P48546 22-466): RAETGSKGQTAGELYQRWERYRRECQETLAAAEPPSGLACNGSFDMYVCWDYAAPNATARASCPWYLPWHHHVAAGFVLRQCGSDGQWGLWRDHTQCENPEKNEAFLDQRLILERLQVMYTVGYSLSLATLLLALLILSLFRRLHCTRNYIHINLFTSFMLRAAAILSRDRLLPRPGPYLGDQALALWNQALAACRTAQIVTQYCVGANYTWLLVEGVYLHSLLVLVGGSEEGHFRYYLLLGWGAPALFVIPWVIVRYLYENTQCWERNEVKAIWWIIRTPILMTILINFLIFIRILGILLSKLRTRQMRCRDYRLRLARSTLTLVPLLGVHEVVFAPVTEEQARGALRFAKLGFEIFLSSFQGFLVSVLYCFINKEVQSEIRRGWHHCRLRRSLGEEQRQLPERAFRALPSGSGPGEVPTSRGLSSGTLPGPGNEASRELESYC
The assay can be described thus: FACS binding assay. Conditions: CHO-K1-hGIPR cells, various concentrations of biotinylated compound, 4°C for 1 hour, APC-Streptavidin detection. On the procedure: In order to determine binding of compounds according to the present invention to GIPR-expressing cells, a FACS binding assay is established.
CHO-K1-hGIPR cells (GenScript Biotech, #M00486) are cultured in Ham's F12 medium (Sigma-Aldrich, #N4888) including 10% fetal calf serum (FCS), 2 mM L-glutamine, 100 U/mL penicillin, 100 µg/mL streptomycin, 200µg/mL Zeocin and 100µg/mL HygromycinB. Cells are detached with Accutase (Biolegend, #BLD-423201) and washed in FACS buffer (PBS including 1% FCS). Cells are diluted in FACS buffer to a final concentration of 500.000 cells per mL. 200 µL of the cell suspension is transferred to a u-shaped non-binding 96-well plate (Greiner) and cells are washed in ice-cold FACS buffer.
For EC50 determination, cells are incubated with various concentrations of biotinylated compound (H-Met-Tyr-Asp-Trp-Trp-Pro-Glu-Leu-[Cys(3MeBn)-Ala-Leu-Ile-Cys]-Ttds-Lys(Bio)-NH2) (SEQ ID NO: 3) at 4°C for 1 hour. […] For IC50 determination, cells are incubated with 20 nM of the biotinylated compound in the presence of increasing concentrations of non-labeled test compounds at 4°C for 1 hour. Cells are washed twice in FACS buffer. […]
Cells are analyzed in an Attune NxT flow cytometer. Median fluorescence intensities (MFI) of the APC/Cy5-channel are calculated by Attune NxT software. […]
In general terms: In flow cytometry, cells or beads pass a laser one at a time.

As a reminder, the EC50 is the concentration that produces a half-maximal response.

Starred links: 1 amine or outer side, 2 acyl side, 3 side chain; linkers in the order of their positions; H or OH if unused. Positions of bridges follow the written chain, without caps; N, C: chain ends. Residues, ends and D or L forms follow the SMILES beside them. *: point of attachment. X1 = NC(=O)[C@H](CCCCNC(=O)CCCC[C@@H]1SC[C@@H]2NC(=O)N[C@@H]21)NC(=O)CCC(=O)NCCCOCCOCCOCCCN*; mXylylene = c1cc(C[*:1])cc(C[*:2])c1

In the case of `CC[C@H](C)[C@@H]1NC(=O)[C@H](CC(C)C)NC(=O)[C@H](C)NC(=O)[C@@H](NC(=O)[C@H](CC(C)C)NC(=O)[C@H](CCC(=O)O)NC(=O)[C@@H]2CCCN2C(=O)[C@H](Cc2c[nH]c3ccccc23)NC(=O)[C@H](Cc2c[nH]c3ccccc23)NC(=O)[C@H](CC(=O)O)NC(=O)[C@H](Cc2ccc(O)cc2)NC(=O)[C@@H](N)CCSC)CSCc2cccc(c2)CSC[C@@H](C(=O)NCCCOCCOCCOCCCNC(=O)CCC(=O)N[C@@H](CCCCNC(=O)CCCC[C@@H]2SC[C@@H]3NC(=O)N[C@@H]32)C(N)=O)NC1=O` [biotinylated compound, H-Met-Tyr-Asp-Trp-Trp-Pro-Glu-Leu-[Cys(3MeBn)-Ala-Leu-Ile-Cys]-Ttds-Lys(Bio)-NH2] (H-MYDWWPELCALIC-X1; linker 9-13 via mXylylene), the half-maximal effective concentration (EC50) is 3.16 nM. In other words, the single-digit nanomolar range.

The values above are taken from patent publication EP4455159A1, “GASTRIC INHIBITORY PEPTIDE RECEPTOR LIGANDS WITH BIO-DISTRIBUTION MODIFIER” (3B Pharmaceuticals GmbH, priority 2023, dated 2024).
